This is an account of results in article PMC3818563, “Effect of Iboga Alkaloids on µ-Opioid Receptor-Coupled G Protein Activation” (PLoS ONE, 2013).

“And” between values parts separate entries of the source, which are not always exact repeats. Equal entries are not always repeated. “Also recorded” adds a separate entry of the source. Structures can show the parent of a compound that is named as a salt. Where two headings read alike, the source gives them in different places. Some results are limits rather than exact numbers.

One data set concerns the target T1, mouse mMOR (Mus musculus, UniProt P42866).
T1 construct: expressed in transfected cells
The experiment in a line: [35S]GTPγS binding in mMOR-expressing HEK 293 cells (Reith lab). It counts as biochemical.

The next data set concerns the target T2, human hMOR (Homo sapiens, UniProt P35372).
T2 construct: expressed in transfected cells
In words: [35S]GTPγS binding in hMOR-expressing CHO cells (Rothman lab). The data set is classed as biochemical. In general terms: Binding of GTPγS marks nucleotide exchange on a G protein.

Data set [1] deals with T3, μ-opioid receptor (MOR) (Rattus norvegicus, UniProt P33535). Also noted: method as in PMID 9592058. To be noted: rat thalamic membranes, cited from earlier work.
T3 sequence (P33535 whole entry): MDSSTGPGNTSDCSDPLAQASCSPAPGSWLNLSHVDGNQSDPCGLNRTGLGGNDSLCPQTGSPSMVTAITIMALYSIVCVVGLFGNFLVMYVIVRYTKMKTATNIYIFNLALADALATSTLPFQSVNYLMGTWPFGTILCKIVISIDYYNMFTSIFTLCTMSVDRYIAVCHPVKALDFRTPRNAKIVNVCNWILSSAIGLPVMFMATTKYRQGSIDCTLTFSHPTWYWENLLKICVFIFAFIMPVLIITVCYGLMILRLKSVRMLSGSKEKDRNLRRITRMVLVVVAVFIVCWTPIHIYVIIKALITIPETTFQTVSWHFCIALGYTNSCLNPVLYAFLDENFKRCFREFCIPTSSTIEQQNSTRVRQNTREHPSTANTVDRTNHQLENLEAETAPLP
The conditions of data set [2]: estimated; cited from earlier work.
For data set [3], the system named is μ-opioid receptor (MOR). Particulars: cited from earlier work.
Data set [4] concerns the target T3, μ-opioid receptor (MOR). In words: In vitro autoradiography of agonist-stimulated [35S]GTPγS binding in rat brain sections (Childers lab). The data set is classed as biochemical. Set-up: from tissue. To be noted: noribogaine by itself at concentrations up to 30 µM.
Data set [5] is described as follows: Solubility of stocks in water. To be noted: thermodynamic from solid.
Data set [6] addresses T3, μ-opioid receptor (MOR). The experiment in a line: [35S]GTPγS binding in Sprague-Dawley rat thalamic membranes (Reith lab). It counts as biochemical. Also noted: from tissue; host or cells: rat thalamus membranes (Sprague-Dawley; also Fischer F344 in the Janowsky lab). Particulars: for Ki: Antagonist activity Ke (functional Ki), Sprague-Dawley rat thalamic membranes (Reith lab), versus DAMGO (1 µM) as agonist.

The target of data set [7] is T3, μ-opioid receptor (MOR). The experiment in a line: [35S]GTPγS binding in Sprague-Dawley / Fischer 344 rat thalamic membranes (Janowsky lab). Also noted: from tissue; host or cells: rat thalamus membranes (Sprague-Dawley; also Fischer F344 in the Janowsky lab). It counts as biochemical.
Data set [8] addresses T3, μ-opioid receptor (MOR). In words: [35S]GTPγS binding in Sprague-Dawley rat thalamic membranes (Childers lab). It counts as biochemical. Also noted: from tissue; host or cells: rat thalamus membranes (Sprague-Dawley; also Fischer F344 in the Janowsky lab).
The target of a further data set is T4, rat rMOR (Rattus norvegicus, UniProt P33535).
T4 construct: expressed in transfected cells
T4 sequence (P33535 whole entry): as above
The experiment in a line: [35S]GTPγS binding in rMOR-expressing CHO cells (Janowsky lab). Particulars: read-out: Agonist activity Emax (%). It counts as biochemical.

The target of data set [9] is rat µ-opioid receptor (rMOR), recombinant (rat) (UniProt P33535).
rat µ-opioid receptor (rMOR), recombinant (rat), sequence (P33535 whole entry): as above
In data set [10] the target is µ-opioid receptor (MOR) of rat brain (rat (endogenous in rat thalamus and brain sections)) (UniProt P33535).
µ-opioid receptor (MOR) of rat brain (rat (endogenous in rat thalamus and brain sections)), sequence (P33535 whole entry): as above
Data set [11] addresses mouse µ-opioid receptor (mMOR) (mouse) (UniProt P42866).
In data set [12] the target is µ-opioid receptor (MOR) of rat brain (rat (endogenous in rat thalamus and brain sections)) (UniProt P33535). The source holds these as a separate data set.
The next data set has as its system NMDA receptor. To be noted: cited from earlier work.
A further data set relates to α2 receptor. To be noted: cited from earlier work.
Setting [13] is: read-out: Agonist activity Emax (%).
The mark [14] stands for this setting: Sprague-Dawley rat thalamic membranes, concentrations up to 100 µM.
Setting [15] is: concentrations up to 10^-5 M, Janowsky lab procedures or procedures of Pablo and Mash.

T1 sequence (P42866 whole entry): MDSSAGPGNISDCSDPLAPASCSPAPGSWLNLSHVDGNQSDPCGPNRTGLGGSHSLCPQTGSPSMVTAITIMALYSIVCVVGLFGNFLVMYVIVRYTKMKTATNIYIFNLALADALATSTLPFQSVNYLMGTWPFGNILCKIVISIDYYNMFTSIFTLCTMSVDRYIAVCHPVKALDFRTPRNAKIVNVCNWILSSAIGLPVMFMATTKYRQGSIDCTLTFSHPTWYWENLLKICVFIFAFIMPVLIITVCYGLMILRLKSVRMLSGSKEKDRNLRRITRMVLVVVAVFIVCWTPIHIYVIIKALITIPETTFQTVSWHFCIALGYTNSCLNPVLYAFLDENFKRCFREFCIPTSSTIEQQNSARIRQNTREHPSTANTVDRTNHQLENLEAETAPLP
mouse µ-opioid receptor (mMOR) (mouse), sequence (P42866 whole entry): as above
T2 sequence (P35372 whole entry): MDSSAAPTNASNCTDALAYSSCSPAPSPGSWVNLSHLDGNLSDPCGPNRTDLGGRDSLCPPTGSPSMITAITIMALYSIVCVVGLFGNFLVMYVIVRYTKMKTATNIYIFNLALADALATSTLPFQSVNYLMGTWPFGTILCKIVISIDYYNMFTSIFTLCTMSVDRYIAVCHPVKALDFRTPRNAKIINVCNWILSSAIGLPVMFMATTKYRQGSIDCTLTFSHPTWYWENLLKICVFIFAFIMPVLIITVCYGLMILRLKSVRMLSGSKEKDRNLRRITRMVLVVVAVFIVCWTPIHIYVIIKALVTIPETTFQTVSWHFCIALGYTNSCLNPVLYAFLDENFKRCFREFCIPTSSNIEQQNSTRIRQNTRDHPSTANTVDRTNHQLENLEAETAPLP

On to `CC[C@H]1C[C@@H]2C[C@H]3c4[nH]c5ccc(O)cc5c4CCN(C2)[C@@H]13` [Noribogaine, Noribogaine HCl], for which the EC50 (in general, the concentration giving half of the maximal effect) at mouse mMOR was 7.42 ± 1.3 µM; at μ-opioid receptor (MOR) [1] (read-out: EC50 for stimulating [35S]GTPγS binding), 0.324 µM. Further, the Ki (in general, the dissociation constant of the complex between target and ligand, obtained from inhibition or displacement) was 38.3 ± 1.71 µM at mouse mMOR; 1.48 ± 0.25 µM on human hMOR; 13 µM and 13.3 µM at μ-opioid receptor (MOR) [6]. The Emax at mouse mMOR (setting [13]) was 36 ± 6%. At μ-opioid receptor (MOR) [1], the “agonist classification by naloxone-sensitive stimulation of [35S]GTPγS binding” value was “full MOR agonist”. Besides, the “half-life relative to parent compound” value in data set [2] is given as “considerably longer than that of the parent compound”. The “affinity for the μ-opioid receptor (MOR)” value in the data set with μ-opioid receptor (MOR) [3] is recorded as “low micromolar range”. For the same molecule, the “effect on [35S]GTPγS binding in any brain region” value on μ-opioid receptor (MOR) [4] was “had no effect”. Moreover, the solubility (usually the concentration that dissolves in the medium under given conditions) in data set [5] was ≥ 1000 µM. Further, at μ-opioid receptor (MOR) [6], the IC50 – broadly, the point on the concentration scale where inhibition reaches its midpoint – was found to be 84 ± 27.8 µM. For the same molecule, the “stimulation of [35S]GTPγS binding” value at μ-opioid receptor (MOR) [6] (setting [14]) is recorded as “no significant stimulation; also recorded: no efficacy”; at μ-opioid receptor (MOR) [7] (setting [15]), “did not stimulate”. Moreover, at μ-opioid receptor (MOR) [8] (Sprague-Dawley rat thalamic membranes (Childers lab), noribogaine up to 10 µM), the “inhibition of the stimulation evoked by 1 µM DAMGO” value is reported as “did not inhibit”. The “effect on [35S]GTPγS binding by itself” value at μ-opioid receptor (MOR) [8] (concentrations up to 30 µM) is recorded as “did not have any effect”.

In the case of `C[C@@H](NC(=O)[C@@H](N)Cc1ccc(O)cc1)C(=O)NCC(=O)N(C)[C@@H](Cc1ccccc1)C(=O)NCCO` [DAMGO, [D-Ala^2, N-MePhe^4, Gly-ol]-enkephalin, reference compound], the Emax turned out to be 257 ± 12% on mouse mMOR (read-out: maximal stimulation of [35S]GTPγS binding over basal); 100% at rat rMOR; 100% at μ-opioid receptor (MOR) [6] (setting [13]); 100% at μ-opioid receptor (MOR) [7] (setting [13]); 100% at μ-opioid receptor (MOR) [8] (setting [13]). The “maximal level of stimulation of [35S]GTPγS binding over basal” value on μ-opioid receptor (MOR) [6] (Sprague-Dawley rat thalamic membranes) was determined as 214 ± 6%.

As to “DAMGO ([D-Ala^2, N-MePhe^4, Gly-ol]-enkephalin) (peptide)”, in data set [9], the EC50 of stimulation of [35S]GTPγS binding, CHO rMOR cell membranes (Janowsky lab) is 0.034 µM. In data set [10], this molecule yielded an EC50 of stimulation of [35S]GTPγS binding, Sprague-Dawley and Fischer 344 rat thalamic membranes (Janowsky lab) of 0.122 µM; an EC50 of stimulation of [35S]GTPγS binding, Sprague-Dawley rat thalamic membranes (Childers lab) of 0.21 µM; an EC50 of stimulation of [35S]GTPγS binding, Sprague-Dawley rat thalamic membranes (Reith lab) of 0.238 µM. The molecule further had a maximal stimulation of [35S]GTPγS binding over basal, HEK 293-mMOR cell membranes (Reith lab) in [11] of 257 % over basal. The molecule further displayed a maximal stimulation of [35S]GTPγS binding over basal, Sprague-Dawley rat thalamic membranes (Reith lab) in [12] of 214 % over basal.

At mouse mMOR, `COCC[C@H]1CC2CN3CCc4c([nH]c5ccccc45)[C@](C(=O)OC)(C2)[C@H]13` [18-MC, 18-methoxycoronaridine] returned an EC50 of 3.42 ± 2.2 µM and a Ki of 19.1 ± 2.97 µM. Also, on mouse mMOR (setting [13]), the Emax came to 19 ± 4%. For the same molecule, in the data set with μ-opioid receptor (MOR) [3], the “affinity for the μ-opioid receptor (MOR)” value was “low micromolar range”. For the same molecule, the “affinity for the NMDA receptor” value in the data set with NMDA receptor was “lacks significant affinity”. Besides, in data set [5], the solubility is ≥ 1000 µM. Further, at μ-opioid receptor (MOR) [6], the IC50 came out at 83.3 ± 19.4 µM; the Ki was 13 µM and 13.2 µM. For the same molecule, on μ-opioid receptor (MOR) [6] (setting [14]), the “stimulation of [35S]GTPγS binding” value is given as “no significant stimulation; also recorded: no efficacy”. For the same molecule, at μ-opioid receptor (MOR) [7] (setting [15]), the “stimulation of [35S]GTPγS binding” value is listed as “did not stimulate”.

For Ibogaine HCl, the “stimulation of [35S]GTPγS binding” value is recorded as ~20% at μ-opioid receptor (MOR) [1] (100 µM ibogaine), 20-30% at μ-opioid receptor (MOR) [1] (concentrations of 100 µM to 1 mM), “no significant stimulation” on μ-opioid receptor (MOR) [6] and “did not stimulate” at μ-opioid receptor (MOR) [7]. Further, in the data set on μ-opioid receptor (MOR) [3], the “affinity for the μ-opioid receptor (MOR)” value is on record as “low micromolar range”. Besides, in the data set with α2 receptor, the “affinity for the α2 receptor” value is “no significant affinity”.
